Data: patent US9801918B2, “Methods of treatment using extracts of Anisomeles heyneana” (Council of Scientific & Industrial Research, priority 2011, dated 2017)
In brackets after ≈: the same amount, converted by molar mass.

Legend:
[1] = tested on: M. tuberculosis; assay: Anti-mycobacterial activity (inhibition of growth of M. tuberculosis); assay type: cell-based; details: concentration exhibiting 90% inhibition against growth of M. tuberculosis, 'Not active' at 100 μg/ml; for IC90: Mycobacterium tuberculosis, read-out: IC90 value determined against M. tuberculosis
[2] = tested on: human monocytic leukaemia Thp-1 cell lines; assay: Anti proliferative activity-MTT cell proliferation assay on human Thp-1 cell line; assay type: cell-based; details: for % Inhibition on Thp-1 cell line at 100 μg/ml / inhibition at 100 µg/mL: 72 h, MTT, average±standard deviation, triplicate, 100 μg/ml; for inhibition at 100 µg/mL: Homo sapiens, THP-1, 72 h

For `C=C1C(=O)O[C@H]2/C=C(\C)C[C@@H]3C=C(CC/C=C(\C)CC[C@H]12)C(=O)O3` [Compound 1, (1R,3E,5S,9R,12E)-3,12-Dimethyl-8-methylene-6,18-dioxatricyclo[14.2.1.05,9]nonadeca-3,12,16(19)-triene-7,17-dione], the IC90 [1] was 6.53 µg/mL (≈ 19.9 µM) and the “% Inhibition on Thp-1 cell line at 100 μg/ml” value [2] was 96.4 ± 0.4592%.
For `C[C@]12CCC[C@](C)(C(=O)O)[C@@H]1CC[C@@]13C[C@@H](CC[C@@H]12)[C@@](O)(CO)C3` [Compound 2, phyllocladan-16α,17-dihydroxy-19-oic acid], the “IC90 value determined against M. tuberculosis” value [1] was “Not active^c”, the “% Inhibition on Thp-1 cell line at 100 μg/ml” value [2] was 59.02 ± 0.8725% and the inhibition at 100 µg/mL [2] was 59 to 97%. For the same compound, the “anti proliferative activity (in words)” value ([2]; qualitative statement) was “comparable to well known drug, paclitaxel”.
`NNC(=O)c1ccncc1` [Isoniazid, reference compound] gave an IC90 [1] of 0.05 ± 0.003 µg/mL (≈ 0.365 µM).
With `CC(=O)O[C@H]1C(=O)[C@@]2(C)[C@H]([C@H](OC(=O)c3ccccc3)[C@]3(O)C[C@H](OC(=O)[C@H](O)[C@@H](NC(=O)c4ccccc4)c4ccccc4)C(C)=C1C3(C)C)[C@]1(OC(C)=O)CO[C@@H]1C[C@@H]2O` [Paclitaxel, reference compound] the inhibition at 100 µg/mL [2] was 61%.
